Data: patent US20240398787A1, “TREATMENT OF MAJOR DEPRESSIVE DISORDER” (AbbVie Inc., priority 2021, published 2024)

System: patients with major depressive disorder (MDD)
Assay: MADRS total score, Clinical Study A (Study 301): cariprazine adjunctive to ADT, 6-week double-blind
Type: in vivo, human
Conditions: for Proportion of patients with MADRS improvement ≥5 points / Proportion of patients with MADRS improvement ≥10 points / Proportion of patients with MADRS improvement ≥15 points / Proportion of patients with MADRS improvement ≥20 points / Proportion of patients with MADRS improvement ≥25 points: post hoc, end of week 6 (LOCF); for MADRS remission rate (total score ≤10) / MADRS response rate (≥50% score reduction from baseline): LOCF
Description: A global, multicenter, randomized, double-blind (DB), placebo-controlled, parallel-group, fixed-dose study compared cariprazine 1.5 mg/day and cariprazine 3 mg/day with placebo as an adjunctive treatment to ongoing ADT in outpatients with a diagnosis of MDD (via the Diagnostic and Statistical Manual of Mental Disorders, Fifth Edition [DSM-5]) having an inadequate response, as measured by the modified Antidepressant Treatment Response Questionnaire (ATRQ), to 1 to 3 antidepressants administered during the current episode at an adequate dose and adequate duration. Adequate dose was defined as a dose above the minimum labeled dose (per package insert). Adequate duration was defined as continuous ADT treatment for at least 6 weeks, with a minimum of 3 of 6 weeks above the minimal dose.
The study population included patients meeting criteria for MDD with a current major depressive episode of at least 8 weeks to less than 24 months in duration and an inadequate response to ongoing antidepressant therapy on the current episode. Both male and female patients of 18 to 65 years of age qualified for the study. Patients met the DSM-5 criteria for MDD based on the SCID-5, with a current major depressive episode of at least 8 weeks to less than 24 months in duration at the time of patient screening. A diagnosis of MDD with psychotic features was […].
Adequate dose was defined as a dose above the minimum labeled dose (per package insert). Adequate duration was defined as continuous antidepressant therapy treatment for at least 6 weeks, with a minimum of 3 of 6 weeks above the minimum dose.
The study consisted of up to 14 days screening (with up to an additional 7 days of needed) and washout of prohibited medications followed by 6 weeks of double-blind (DB) treatment followed by a 4-week safety follow-up. At the end of the screening period, patients meeting the entry criteria for the study were randomized (1:1:1) to 1 of 3 double-blind treatment groups. Study treatment groups were: cariprazine 1.5 mg/day+antidepressant therapy and cariprazine 3 mg/day+antidepressant therapy. The control group received matching placebo+antidepressant therapy.
Dosage/Dose Regimen: Investigational product (cariprazine or placebo) in the form of capsules packaged in blister packs will be provided. No investigational product was administered during the screening/washout period; patients continued the same antidepressant and dose they were on at screening. Patients were taking more than one antidepressant at screening, regardless of the indication, discontinued all other antidepressants prior to baseline (Visit 2). During the double-blind treatment period (6 weeks), patients were administered 1 capsule orally per day in addition to their ongoing ADT. Patients in the 1.5 mg/day+ADT arm were administered 1.5 mg+ADT starting at Visit 2 (Week 0). Patients in the 3 mg/day+ADT arm were administered 1.5 mg+ADT starting at Visit 2 (Week 0) for 2 weeks and then titrate to 3 mg/day+ADT starting at Visit 4 (Week 2). Patients were supplied with identically appearing capsules of either cariprazine 1.5 mg, cariprazine 3 mg, or placebo.
A randomized, double-blind, placebo-controlled, multicenter trial with 759 participants was conducted in United States, Bulgaria, Estonia, Germany, Hungary, Ukraine, and the United Kingdom. Following a screening period of up to 14 days (with up to an additional 7 days if needed), which included a washout of prohibited psychotropic medications except for ongoing ADT, patients with a partial response to their antidepressant monotherapy were randomized into three treatment groups (1:1:1). One group received cariprazine 1.5 mg/d+ADT, one received cariprazine 3.0 mg/d+ADT, and one group received placebo+ADT. All participants randomized to cariprazine began on 1.5 mg/d; cariprazine 1.5 mg/d patients remained at that dosage, while cariprazine 3.0 mg/d patients received 1.5 mg/d for 2 weeks and increased to 3.0 mg/d on day 15. […]

[1] = 1.5 mg/d + ADT, week 6, ANCOVA and LOCF
[2] = 3.0 mg/d + ADT, week 6, ANCOVA and LOCF
[3] = change from baseline to week 6, dose not stated

CN(C)C(=O)N[C@H]1CC[C@H](CCN2CCN(c3cccc(Cl)c3Cl)CC2)CC1 [Cariprazine, trans-N-{4-[2-[4-(2,3-dichlorophenyl)piperazin-1-yl]ethyl]cyclohexyl}-N′,N′-dimethylurea]
Proportion of patients with MADRS improvement ≥5 points (1.5 mg/d + ADT): 84% | Proportion of patients with MADRS improvement ≥10 points (1.5 mg/d + ADT): 64% | Proportion of patients with MADRS improvement ≥15 points (1.5 mg/d + ADT): 46% | Proportion of patients with MADRS improvement ≥20 points (1.5 mg/d + ADT): 33% | Proportion of patients with MADRS improvement ≥25 points (1.5 mg/d + ADT): 19% | Mean (SD) MADRS score at week 6 (1.5 mg/d + ADT, week 6): 17.4 (9.1) | LS mean change from baseline in MADRS total score [1]: −14.4 | LSMD vs placebo, MADRS total score [1]: −2.4 | MADRS remission rate (total score ≤10) (1.5 mg/d + ADT, week 6): 25.2% | MADRS response rate (≥50% score reduction from baseline) (1.5 mg/d + ADT, week 6): 44.0% | LS Mean (SE) change from baseline, MADRS total score (1.5 mg/day + ADT, week 1, MMRM): −4.4 (0.5) | LSMD (95% CI) vs placebo + ADT, MADRS total score (1.5 mg/day + ADT, week 1, MMRM): −0.6 (−1.5; 0.5) | MADRS remission, odds ratio vs placebo (95% CI) (1.5 mg/day + ADT, week 2): 0.9 (0.4, 1.8) | MADRS remissions (total score ≤10) (1.5 mg/day + ADT, week 2): 13 (5.2) n (%) | MADRS responders (≥50% score reduction) (1.5 mg/day + ADT, week 2): 43 (17.2) n (%) | MADRS response, odds ratio vs placebo (95% CI) (1.5 mg/day + ADT, week 2): 1.2 (0.7, 2.0) | LS Mean (SE) change from baseline, MADRS total score (1.5 mg/day + ADT, week 2, MMRM): −8.6 (0.6) | LSMD (95% CI) vs placebo + ADT, MADRS total score (1.5 mg/day + ADT, week 2, MMRM): −1.2 (−2.5; 0) | MADRS remission, odds ratio vs placebo (95% CI) (1.5 mg/day + ADT, week 4): 1.2 (0.7, 1.9) | MADRS remissions (total score ≤10) (1.5 mg/day + ADT, week 4): 37 (14.8) n (%) | MADRS responders (≥50% score reduction) (1.5 mg/day + ADT, week 4): 88 (35.2) n (%) | MADRS response, odds ratio vs placebo (95% CI) (1.5 mg/day + ADT, week 4): 1.6 (1.1, 2.3) | LS Mean (SE) change from baseline, MADRS total score (1.5 mg/day + ADT, week 4, MMRM): −12.4 (0.6) | LSMD (95% CI) vs placebo + ADT, MADRS total score (1.5 mg/day + ADT, week 4, MMRM): −2.9 (−4.3; −1.5) | MADRS remissions (total score ≤10) (1.5 mg/day + ADT, week 6): 63 (25.2) n (%) | MADRS responders (≥50% score reduction) (1.5 mg/day + ADT, week 6): 110 (44.0) n (%) | LSMD vs placebo, MADRS total score (1.5 mg/day + ADT, week 6, MMRM): −2.5 (−4.2; −0.9) | LSMD vs placebo, MADRS total score (1.5 mg/day + ADT, week 6, MMRM, listed as CAR): −2.5 | LSMD vs placebo, MADRS total score (1.5 mg/day + ADT, week 6, MMRM, listed as cariprazine): −2.5 | LS mean change from baseline in MADRS total score (1.5 mg/day + ADT, week 6, MMRM, mITT): −14.1 (0.7) | LS mean change from baseline in MADRS total score (1.5 mg/day + ADT, week 6, MMRM, mITT, listed as cariprazine): −14.1 | Proportion of patients with MADRS improvement ≥5 points (3.0 mg/d + ADT): 84% | Proportion of patients with MADRS improvement ≥10 points (3.0 mg/d + ADT): 66% | Proportion of patients with MADRS improvement ≥15 points (3.0 mg/d + ADT): 43% | Proportion of patients with MADRS improvement ≥20 points (3.0 mg/d + ADT): 24% | Proportion of patients with MADRS improvement ≥25 points (3.0 mg/d + ADT): 11% | Mean (SD) MADRS score at week 6 (3 mg/d + ADT, week 6): 18.6 (8.9) | LS mean change from baseline in MADRS total score [2]: −13.3 | LSMD vs placebo, MADRS total score [2]: −1.3 | MADRS remission rate (total score ≤10) (3.0 mg/d + ADT, week 6): 16.7% | MADRS response rate (≥50% score reduction from baseline) (3.0 mg/d + ADT, week 6): 39.3% | LS Mean (SE) change from baseline, MADRS total score (3 mg/day + ADT, week 1, MMRM): −3.9 (0.5) | LSMD (95% CI) vs placebo + ADT, MADRS total score (3 mg/day + ADT, week 1, MMRM): −0.1 (−1.0; 0.8) | MADRS remission, odds ratio vs placebo (95% CI) (3 mg/day + ADT, week 2): 0.5 (0.25, 1.23) | MADRS remissions (total score ≤10) (3 mg/day + ADT, week 2): 9 (3.6) n (%) | MADRS responders (≥50% score reduction) (3 mg/day + ADT, week 2): 39 (15.5) n (%) | MADRS response, odds ratio vs placebo (95% CI) (3 mg/day + ADT, week 2): 1.1 (0.7, 1.8) | LS Mean (SE) change from baseline, MADRS total score (3 mg/day + ADT, week 2, MMRM): −7.8 (0.6) | LSMD (95% CI) vs placebo + ADT, MADRS total score (3 mg/day + ADT, week 2, MMRM): −0.5 (−1.7; 0.8) | MADRS remission, odds ratio vs placebo (95% CI) (3 mg/day + ADT, week 4): 0.6 (0.4, 1.1) | MADRS remissions (total score ≤10) (3 mg/day + ADT, week 4): 22 (8.7) n (%) | MADRS responders (≥50% score reduction) (3 mg/day + ADT, week 4): 60 (23.8) n (%) | MADRS response, odds ratio vs placebo (95% CI) (3 mg/day + ADT, week 4): 0.9 (0.6, 1.3) | LS Mean (SE) change from baseline, MADRS total score (3 mg/day + ADT, week 4, MMRM): −10.6 (0.6) | LSMD (95% CI) vs placebo + ADT, MADRS total score (3 mg/day + ADT, week 4, MMRM): −1.0 (−2.4; 0.4) | MADRS remissions (total score ≤10) (3 mg/day + ADT, week 6): 42 (16.7) n (%) | MADRS responders (≥50% score reduction) (3 mg/day + ADT, week 6): 99 (39.3) n (%) | LSMD vs placebo, MADRS total score (3 mg/day + ADT, week 6, MMRM): −1.5 (−3.2; 0.1) | LSMD vs placebo, MADRS total score (3 mg/day + ADT, week 6, MMRM, listed as CAR): −1.5 | LS mean change from baseline in MADRS total score (3 mg/day + ADT, week 6, MMRM, mITT): −13.1 | LSMD vs placebo, MADRS individual item "apparent sadness" [3]: −0.2 | LSMD vs placebo, MADRS individual item "inability to feel" [3]: −0.3 | LSMD vs placebo, MADRS individual item "lassitude" [3]: −0.3 | LSMD vs placebo, MADRS individual item "pessimistic thoughts" [3]: −0.3 | LSMD vs placebo, MADRS individual item "reduced appetite" [3]: −0.3 | LSMD vs placebo, MADRS individual item "reported sadness" [3]: −0.4 | LSMD vs placebo, MADRS individual item "suicidal thoughts" [3]: −0.1
